Results on 75 compounds are retold here after publication PMC12040169 (PLOS Biology, 2025).

The nature of the first data set: in vitro. The following applies: human, hela cells, % viability.
On to `CCC(=O)N(Cc1cc2cc(C)ccc2nc1O)c1ccc(C)c(C)c1` [CBK265381], for which the viability at 28.5 h, 10 µM was determined as 107%. With `CC(NC(=O)C1C2C=CC(C2)C1C(=O)O)c1ccccc1` (stereo not drawn) [CBK265384], the viability at 28.5 h, 10 µM turned out to be 109%. Take `Cc1c(-c2ccc(Cl)cc2Cl)nc2ccccc2c1C(=O)NCc1ccc(S(N)(=O)=O)cc1` [CBK265387]: the viability at 28.5 h, 10 µM is 101%. In the case of `O=C(O)c1cc(-c2cc(Cl)ccc2Cl)nc2ccccc12` [CBK265391], the viability at 28.5 h, 10 µM was determined as 96.1%. Regarding `CC(Oc1ccc(Cl)cc1Cl)C(=O)Nc1sc2c(c1C(N)=O)CCCCCC2` (stereo not drawn) [CBK265394], the viability at 28.5 h, 10 µM is 85.8%.

As for `CC(=O)Nc1ccc(NC(=O)CCC(=O)O)cc1C` [CBK265395], the viability at 28.5 h, 10 µM is 95.3%. With `CCOC(=O)c1ccc(N2C(=O)CC(N3CCN(c4cccc(OC)c4)CC3)C2=O)cc1` (stereo not drawn) [CBK265396], the viability at 28.5 h, 10 µM was 101%.

For the compound `CC1Cc2ccccc2N1C(=O)CSc1nnc2sc3ccccc3n12` (stereo not drawn) [CBK265398], the viability at 28.5 h, 10 µM was determined as 94%.

For the compound `COC(=O)c1cc(NC(=O)c2cc(-c3ccc(C)o3)nc3ccccc23)cc(C(=O)OC)c1` [CBK265400], the viability at 28.5 h, 10 µM was 86.3%. For the compound `Cc1cc(NC(=O)C(=O)NCCN2CCN(S(C)(=O)=O)CC2)ccc1Br` [CBK265401], the viability at 28.5 h, 10 µM was found to be 85.4%. On the same count and under the same terms, the result for `Cc1ccc(-c2cc(C(=O)NCc3cccnc3)c3ccccc3n2)cc1C` [CBK265402] reads 97.5%; that for `O=C(O)C1C2C=CC(C2)C1C(=O)NCc1ccncc1` (stereo not drawn) [CBK265403], 102%; that for `CCCCC(CC)CN1CNC(=S)NC1` (stereo not drawn) [CBK265404], 105%. For the compound `O=c1cc2oc3cc(O)c(O)cc3c(-c3ccc(OCc4cccc([N+](=O)[O-])c4)cc3)c-2cc1O` [CBK265408], the viability at 28.5 h, 10 µM amounted to 75.3%. As to `O=C(CCc1ccccc1)Nc1cccc(N2C(=O)C3C4c5ccccc5C(c5ccccc54)C3C2=O)c1` (stereo not drawn) [CBK265409], the viability at 28.5 h, 10 µM was found to be 91.1%.

As to `O=C(c1ccccc1)C(Sc1nnc2sc3ccccc3n12)c1ccccc1` (stereo not drawn) [CBK265416], the viability at 28.5 h, 10 µM is 84.2%. For `O=C(CN1CCCCC1)Nc1ccc(NC(=O)CN2CCCCC2)cc1` [CBK265421], the viability at 28.5 h, 10 µM worked out at 86.3%.

For `CCC1CCc2c(sc(NC(=O)C3C4CCC(C4=C(C)C)C3C(=O)O)c2C(=O)OC)C1` (stereo not drawn) [CBK265424], the viability at 28.5 h, 10 µM is 102%. Same read-out and setting: the result for `Cc1ccc(N(Cc2cc3cccc(C)c3nc2O)C(=O)c2cccc([N+](=O)[O-])c2)cc1` [CBK265426] reads 98.2%.

For the compound `CCOc1ccc(N(Cc2cc3cc(C)ccc3nc2O)C(=O)c2ccccc2OC)cc1` [CBK265427], the viability at 28.5 h, 10 µM turned out to be 103%.

For the compound `CC1=C(C)CC(C(=O)Nc2sc3c(c2C(=O)OC(C)C)CCCC3)C(C(=O)O)C1` (stereo not drawn) [CBK265428], the viability at 28.5 h, 10 µM is 87%. As to `Cc1noc(NS(=O)(=O)c2ccc(NC(=O)/C=C/c3ccc(C(C)C)cc3)cc2)c1C` [CBK265430], the viability at 28.5 h, 10 µM worked out at 89.2%. Regarding `Cc1ccc(S(=O)(=O)N2CCN(c3ccc([N+](=O)[O-])c(NCCN4CCOCC4)c3)CC2)cc1` [CBK265432], the viability at 28.5 h, 10 µM was determined as 102%. With `CN1CCN(C2CC(=O)N(c3ccc(Oc4ccccc4)cc3)C2=O)CC1` (stereo not drawn) [CBK265434], the viability at 28.5 h, 10 µM was determined as 103%. As for `O=C(CCCc1ccccc1)Nc1scc2c(=O)oc3ccccc3c12` [CBK265435], the viability at 28.5 h, 10 µM turned out to be 90.1%. On to `COC(=O)COc1ccc(C(NC(=O)c2ccccc2)C(Cl)(Cl)Cl)cc1` (stereo not drawn) [CBK265437], for which the viability at 28.5 h, 10 µM is 97.8%. Same read-out and setting: the same measure for `CCOC(=O)c1c(NC(=O)C2C3CCC(C3=C(C)C)C2C(=O)O)sc2c1CCCCC2` (stereo not drawn) [CBK265439]: 106%.

Turning to `O=C(C1CCCN(C2CCN(Cc3ccccc3)CC2)C1)N1CCN(c2ccccc2)CC1` (stereo not drawn) [CBK265440G], the viability at 28.5 h, 10 µM was determined as 113%. As to `Cc1cc(Cl)ccc1OC(C)C(=O)NCc1ccccn1` (stereo not drawn) [CBK265441], the viability at 28.5 h, 10 µM stood at 98.8%. In the case of `Cc1ccc(N(Cc2cc3ccccc3nc2O)C(=O)c2cccnc2)cc1` [CBK265442], the viability at 28.5 h, 10 µM was 85.5%. Regarding `CC(CNC(=O)C(C)(C)C)NC(=O)C(C)(C)C` (stereo not drawn) [CBK265443], the viability at 28.5 h, 10 µM was determined as 93.6%. Same read-out and setting: the same measure for `O=C(CCCc1ccccc1)Nc1ccc(F)cc1[N+](=O)[O-]` [CBK265446]: 99.9%; for `COc1ccc(NC(=O)CCC(=O)O)c(OC)c1` [CBK265451]: 104%. Turning to `COC(=O)c1c(NC(=O)COc2ccccc2Cl)sc2c1CCC(c1ccccc1)C2` (stereo not drawn) [CBK265456], the viability at 28.5 h, 10 µM came out at 90.3%. On the same count and under the same terms, the same measure for `O=C(NCCCn1ccnc1)Nc1cccc(Cl)c1` [CBK265458]: 93.9%; for `O=C(O)C1CC=CCC1C(=O)NCCCCc1ccccc1` (stereo not drawn) [CBK265460]: 98.7%; for `Cc1ccc(S(=O)(=O)NCCN2CCN(S(=O)(=O)c3ccc(C)cc3)CC2)cc1` [CBK265461]: 115%. Regarding `O=C(O)CCC(=O)NCCCc1ccccc1` [CBK265465], the viability at 28.5 h, 10 µM was 86.7%. Consider `CC1CCc2c(sc(NC(=O)c3cnccn3)c2C(N)=O)C1` (stereo not drawn) [CBK265466], for which the viability at 28.5 h, 10 µM was found to be 90.7%. As for `CC1CCN(CCN2CCn3c2nc2ccccc23)CC1` [CBK265467B], the viability at 28.5 h, 10 µM came out at 80%. In the case of `CCOC(=O)c1c(NC(=O)C2CCCCC2C(=O)O)sc(C)c1C` (stereo not drawn) [CBK265469], the viability at 28.5 h, 10 µM was determined as 99.2%.

For `O=C(NCCCN1CCOCC1)c1cc(Cl)ccc1[N+](=O)[O-]` [CBK265470], the viability at 28.5 h, 10 µM worked out at 108%.

For `CCCOC(=O)c1c(NC(=O)C2C3C=CC(C3)C2C(=O)O)sc2c1CCC(C)C2` (stereo not drawn) [CBK265473], the viability at 28.5 h, 10 µM was found to be 87.5%. As for `Cc1cc(NS(=O)(=O)c2ccc(NC(=O)/C=C/c3ccc(C)o3)cc2)nc(C)n1` [CBK265474], the viability at 28.5 h, 10 µM amounted to 96.5%. `O=C(NCCCn1ccnc1)c1cc(-c2cccc(Br)c2)nc2ccccc12` [CBK265476]: the viability at 28.5 h, 10 µM was found to be 91.4%. `CC(Oc1cccc(Cl)c1)C(=O)NCc1ccc(S(N)(=O)=O)cc1` (stereo not drawn) [CBK265477]: the viability at 28.5 h, 10 µM was determined as 97%. As to `COc1ccc(N2CCN(c3nc(NCCO)nc(OC)n3)CC2)cc1` [CBK265478], the viability at 28.5 h, 10 µM amounted to 103%.

Take `CC(Nc1cc(N2CCN(S(=O)(=O)N(C)C)CC2)ccc1[N+](=O)[O-])C12CC3CC(CC(C3)C1)C2` (stereo not drawn) [CBK265479]: the viability at 28.5 h, 10 µM stood at 115%. For `O=C(O)C1CC=CCC1C(=O)NCc1ccncc1` (stereo not drawn) [CBK265481], the viability at 28.5 h, 10 µM is 89.2%. As for `CCOC(=O)Cn1nc(-c2nonc2N)nc1-c1nonc1N` [CBK265482], the viability at 28.5 h, 10 µM turned out to be 88.5%.

Take `COc1ccc(/C=C/C(=O)NCc2ccc(S(N)(=O)=O)cc2)cc1OC` [CBK265483]: the viability at 28.5 h, 10 µM amounted to 91%. On to `Cc1ccc(C)c(NC(CC(=O)c2ccccc2)C(=O)O)c1` (stereo not drawn) [CBK265485], for which the viability at 28.5 h, 10 µM is 102%. On to `COc1ccc(CCNC(=O)c2cc(-c3ccc(C)o3)nc3ccccc23)cc1OC` [CBK265486], for which the viability at 28.5 h, 10 µM turned out to be 117%. Consider `CC(Oc1ccc(Cl)cc1Cl)C(=O)NCCc1cccc(Cl)c1` (stereo not drawn) [CBK265489], for which the viability at 28.5 h, 10 µM was 84.2%. Take `O=C(/C=C/c1c(Cl)cccc1Cl)Nc1ccc(S(=O)(=O)Nc2ncccn2)cc1` [CBK265490]: the viability at 28.5 h, 10 µM turned out to be 98.8%.

In the case of `Cc1ccc(C)c(C(=O)C2=C(O)C(=O)N(CCCN3CCOCC3)C2c2ccncc2)c1` (stereo not drawn) [CBK265492], the viability at 28.5 h, 10 µM stood at 103%. The same measure, in the same setting: the same measure for `O=C(CSc1ccccc1[N+](=O)[O-])Oc1ccccc1` [CBK265501]: 106%; for `O=S(=O)(c1ccc(-c2csc(-c3ccccc3)n2)cc1)N1CCCCCC1` [CBK265504]: 84.9%.

Regarding `Cc1nc2ccccc2c2c1C(=O)N(c1cccc(C(=O)OCC(=O)c3ccccc3Cl)c1)C2=O` [CBK265505], the viability at 28.5 h, 10 µM came to 98.5%.

As to `CC(Oc1ccc(F)cc1)C(=O)NCCN1CCOCC1` (stereo not drawn) [CBK265508], the viability at 28.5 h, 10 µM is 99.4%.

As for `COc1ccc(-c2cc(C(=O)OCC(=O)c3cccc4ccccc34)c3ccccc3n2)cc1` [CBK265513], the viability at 28.5 h, 10 µM is 96.7%.

On to `COc1ccc(N2C(=O)c3ccc(C(=O)OCC(=O)c4ccccc4Cl)cc3C2=O)c([N+](=O)[O-])c1` [CBK265514], for which the viability at 28.5 h, 10 µM worked out at 83.7%.

As for `Cc1ccc(C(=O)C(OC(=O)c2cc(O)nc3ccccc23)c2ccccc2)cc1C` (stereo not drawn) [CBK265515], the viability at 28.5 h, 10 µM was 90.9%. As for `O=C(CCCc1ccccc1)Nc1ccccc1C(=O)O` [CBK265516], the viability at 28.5 h, 10 µM is 97.4%. For `O=C(NCCc1ccccc1)c1c(NC(=O)C2COc3ccccc3O2)sc2c1CCCC2` (stereo not drawn) [CBK265522], the viability at 28.5 h, 10 µM is 89.8%. On to `Cc1c(NC(=O)CCCC(=O)O)cccc1C(=O)O` [CBK265525], for which the viability at 28.5 h, 10 µM amounted to 95%. In the case of `CCCCOC(=O)c1ccc(N2C(=O)CC(N3CCN(c4ccc(F)cc4)CC3)C2=O)cc1` (stereo not drawn) [CBK265527], the viability at 28.5 h, 10 µM came out at 94.6%. On to `c1ccc(-n2ncc3c(NCc4cccnc4)ncnc32)cc1` [CBK265528], for which the viability at 28.5 h, 10 µM turned out to be 85.2%.

Still in this data set, the particulars now being: human, hela cells, % viability, bulk resorufin, single well.
As to `O=C1NC(=O)N(c2ccc(O)cc2)C(=O)/C1=C/c1cc(Cl)c(OCc2ccccc2)c(Cl)c1` [CBK265385], the viability at 28.5 h, 10 µM is 78.1%.

Regarding `COC(=O)c1ccc(N2C(=O)NC(=O)/C(=C\c3ccc(OCC(=O)O)cc3)C2=O)cc1` [CBK265407], the viability at 28.5 h, 10 µM was 85.2%. Turning to `COc1cc(/C=C2\C(=O)NC(=O)N(c3ccc([N+](=O)[O-])cc3)C2=O)ccc1OCC(=O)O` [CBK265418], the viability at 28.5 h, 10 µM was found to be 100%.

Turning to `O=C(O)COc1ccccc1/C=C1\C(=O)NC(=O)N(c2ccc(OCc3ccccc3)cc2)C1=O` [CBK265419], the viability at 28.5 h, 10 µM came to 114%.

Turning to `COc1cc(/C=C2\C(=O)NC(=O)N(c3ccc([N+](=O)[O-])cc3)C2=O)cc(Cl)c1OCC(=O)O` [CBK265431], the viability at 28.5 h, 10 µM is 98.3%.

For `O=C(O)COc1ccccc1/C=C1\C(=O)NC(=O)N(c2ccc(O)cc2)C1=O` [CBK265436], the viability at 28.5 h, 10 µM amounted to 85.2%. Take `O=C1NC(=O)N(c2cccc([N+](=O)[O-])c2)C(=O)/C1=C\c1ccccc1OCc1ccc(C(=O)O)cc1` [CBK265484]: the viability at 28.5 h, 10 µM worked out at 106%.
